What was measured:
Experiment in all cases: isothermal titration calorimetry
Gal-3–Gal-7 = biological target: T1, Gal-3–Gal-7; format: binding, Homo sapiens; details: 25 °C, pH 7.2, 20 mM phosphate, 10 mM NaCl, 10 mM beta-mercaptoethanol; one-set-of-sites, n fitted
T1 construct: gene LGALS3; one polypeptide; recombinant from E. coli
Description: isothermal titration calorimetry on Gal-3–Gal-7

Gal-7–8S–Gal-3 = biological target: T2, Gal-7–8S–Gal-3; format: binding, Homo sapiens; details: 25 °C, pH 7.2, 20 mM phosphate, 10 mM NaCl, 10 mM beta-mercaptoethanol; one-set-of-sites, n fitted; LacNAc 2 mM
T2 construct: gene LGALS7; one polypeptide; recombinant from E. coli
Description: isothermal titration calorimetry on Gal-7–8S–Gal-3

Gal-3–8S–Gal-7 = biological target: T3, Gal-3–8S–Gal-7; format: binding, Homo sapiens; details: 25 °C, pH 7.2, 20 mM phosphate, 10 mM NaCl, 10 mM beta-mercaptoethanol; one-set-of-sites, n fitted
T3 construct: gene LGALS3; one polypeptide; recombinant from E. coli
Description: isothermal titration calorimetry on Gal-3–8S–Gal-7

Gal-1–8S–Gal-7 = biological target: T4, Gal-1–8S–Gal-7; format: binding, Homo sapiens; details: 25 °C, pH 7.2, 20 mM phosphate, 10 mM NaCl, 10 mM beta-mercaptoethanol; one-set-of-sites, n fitted
T4 construct: gene LGALS1; Gal-1 CRD N-terminal, 33-amino-acid linker of Gal-8S, Gal-7 CRD C-terminal; one polypeptide; recombinant from E. coli
Description: isothermal titration calorimetry on Gal-1–8S–Gal-7

Gal-7–Gal-1 = biological target: T5, Gal-7–Gal-1; format: binding, Homo sapiens; details: 25 °C, pH 7.2, 20 mM phosphate, 10 mM NaCl, 10 mM beta-mercaptoethanol; one-set-of-sites, n fitted
T5 construct: gene LGALS7; direct fusion, Gal-7 CRD N-terminal, Gal-1 CRD C-terminal; one polypeptide; recombinant from E. coli
Description: isothermal titration calorimetry on Gal-7–Gal-1

Gal-1–Gal-7 = biological target: T6, Gal-1–Gal-7; format: binding, Homo sapiens; details: 25 °C, pH 7.2, 20 mM phosphate, 10 mM NaCl, 10 mM beta-mercaptoethanol; one-set-of-sites, n fitted
T6 construct: gene LGALS1; direct fusion, Gal-1 CRD N-terminal, Gal-7 CRD C-terminal; one polypeptide; recombinant from E. coli
Description: isothermal titration calorimetry on Gal-1–Gal-7

Gal-7–8S–Gal-7 = biological target: T7, Gal-7–8S–Gal-7 (Homo sapiens, UniProt P47929); format: binding; details: 25 °C, pH 7.2, 20 mM phosphate, 10 mM NaCl, 10 mM beta-mercaptoethanol; one-set-of-sites, n fitted
T7 construct: gene LGALS7; two Gal-7 CRDs in one polypeptide joined by the 33-amino-acid linker of Gal-8S (covalent homodimer); recombinant from E. coli
T7 sequence (P47929 whole entry): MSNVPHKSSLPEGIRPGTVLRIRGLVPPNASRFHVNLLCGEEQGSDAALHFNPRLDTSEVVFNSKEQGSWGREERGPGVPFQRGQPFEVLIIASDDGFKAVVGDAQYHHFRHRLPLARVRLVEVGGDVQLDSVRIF
Description: isothermal titration calorimetry on Gal-7–8S–Gal-7

Gal-7 = biological target: T8, Gal-7 (Homo sapiens, UniProt P47929); format: binding; details: 25 °C
T8 construct: gene LGALS7; wild type, recombinant from E. coli, lactosylated Sepharose; non-covalent homodimer
T8 sequence (P47929 whole entry): as above
Description: isothermal titration calorimetry on Gal-7 | TF) antigen CD176) interacts with Gal-7’s CRD (Table S15, Fig. S11) | The data obtained with Lac (Table S14) corroborated the conclusions on activity

Gal-7–Gal-7 = biological target: T9, Gal-7–Gal-7 (Homo sapiens, UniProt P47929); format: binding; details: 25 °C, pH 7.2, 20 mM phosphate, 10 mM NaCl, 10 mM beta-mercaptoethanol; one-set-of-sites, n fitted; LacNAc 10 mM
T9 construct: gene LGALS7; two Gal-7 CRDs directly fused in one polypeptide (covalent homodimer, no added residues); recombinant from E. coli
T9 sequence (P47929 whole entry, the tested form may be a part): as the sequence (P47929 whole entry) above
Description: isothermal titration calorimetry on Gal-7–Gal-7

Gal-7–Gal-3 = biological target: T10, Gal-7–Gal-3; format: binding, Homo sapiens; details: 25 °C, pH 7.2, 20 mM phosphate, 10 mM NaCl, 10 mM beta-mercaptoethanol; one-set-of-sites, n fitted
T10 construct: gene LGALS7; one polypeptide; recombinant from E. coli
Description: isothermal titration calorimetry on Gal-7–Gal-3

SMILES	Kd (Gal-3–Gal-7)	Kd (Gal-7–8S–Gal-3)	Kd (Gal-3–8S–Gal-7)	Kd (Gal-1–8S–Gal-7)	Kd (Gal-7–Gal-1)	Kd (Gal-1–Gal-7)	Kd (Gal-7–8S–Gal-7)	Kd (Gal-7; pH 7.2, 20 mM phosphate, 10 mM NaCl, 10 mM beta-mercaptoethanol, one-set-of-sites, n fitted)	Kd (Gal-7–Gal-7)	Kd (Gal-7–Gal-3)	Kd (Gal-7; pH 7.2)
CC(=O)N[C@H]1C(O)O[C@H](CO)[C@@H](O[C@@H]2O[C@H](CO)[C@H](O)[C@H](O)[C@H]2O)[C@@H]1O (stereo partly drawn) [LacNAc]	96.2 ± 2.1 µM	32.5 ± 0.81 µM	68.6 ± 6.56 µM	162 ± 3.79 µM	103 ± 6.11 µM	175 ± 2.11 µM	287 ± 9.55 µM	316 ± 5.88 µM	261 ± 6.21 µM	86.5 ± 5.75 µM	–
OC[C@H]1O[C@@H](O[C@H]2[C@H](O)[C@@H](O)C(O)O[C@@H]2CO)[C@H](O)[C@@H](O)[C@H]1O (stereo partly drawn) [Lac]	–	–	–	–	–	–	–	–	–	–	323 ± 5.7 µM
CC(=O)N[C@H]1C(O)O[C@H](CO)[C@H](O)[C@@H]1O[C@@H]1O[C@H](CO)[C@H](O)[C@H](O)[C@H]1O (stereo partly drawn) [core 1 mucin-type O-glycan disaccharide]	–	–	–	–	–	–	–	–	–	–	1250 ± 126 µM
